Laboratory results taken from patent US20240182406A1, “COMPOUNDS AS SOLUBLE EPOXIDE HYDROLASE INHIBITORS” (UNIVERSITAT DE BARCELONA, priority 2021, published 2024).
Marks after values point to notes of the source that are not given here.

How the values were obtained:
TREM2 = test: Western blot of hippocampus, neuroinflammation marker TREM2 (5×FAD mice); assay type: in vivo, mouse; details: 5×FAD male mice, 5 mg/kg, 4 weeks, Arbitrary Units, control as 100%
From the text: (§1) 5×FAD (tg6799) is an early-onset mouse transgenic model which overexpress mutant human APP(695) with the Swedish (K670N, M671L), Florida (I716V) and London (V717I) Familial Alzheimer's Disease (FAD) mutations along with human PS1 harbouring two FAD mutations (M146L and L286V). The Tg6799 line used is the original hybrid B6SJL background, and this hybrid B6SJL strain is used as a control of healthy animals. The mouse Thy1 promoter regulates both transgenes to drive overexpression in the brain. 5×FAD mice recapitulate major features of AD amyloid pathology and is a useful model of intraneuronal Abeta-42 induced neurodegeneration with amyloid increase brain content and amyloid plaque formation and tau hyperphosphorylation (J Neurosci. 2006, 26(40), 10129-10140).
(§2) The test compound was dissolved in 1.8% hydroxypropyl-beta-cyclodextrin and concentration in water was calculated according to the weekly animal consumption to reach the precise daily dose. A freshly made weekly replaces the drinking solution. The amount of water that the animals drink was monitored weekly, by the cage, and drug concentration was adjusted every week to reach the precise dose. […]
(§3) Afterwards, membranes were washed and incubated with secondary antibodies for 1 h at room temperature. […] Immunodetection of GADPH routinely monitored protein loading. […]

5×FAD mice = test: Novel Object Recognition Test (NORT) in 5×FAD mouse model of Alzheimer disease; assay type: in vivo; details: 5×FAD model, 5 mg/kg, treated vs control groups
From the text: 5×FAD (tg6799) is an early-onset mouse transgenic model which overexpress mutant human APP(695) with the Swedish (K670N, M671L), Florida (I716V) and London (V717I) Familial Alzheimer's Disease (FAD) mutations along with human PS1 harbouring two FAD mutations (M146L and L286V). The Tg6799 line used is the original hybrid B6SJL background, and this hybrid B6SJL strain is used as a control of healthy animals. The mouse Thy1 promoter regulates both transgenes to drive overexpression in the brain. […]
as §2, with “A freshly made weekly replaces the drinking solution.” left out
Mice were placed in a 90°, two-arm, 25-cm-long, 20-cm-high, 5-cm-wide black maze. […] During this second trial, objects A and B were placed in the maze and the behaviour of the mice was recorded with a camera. The time that the mice explored the New object (TN) and Time that the mice explored the Old object […] (TO) were measured. […]

mouse primary microglia = test: AβO-induced microglial activation, qPCR; assay type: cell-based; details: pretreated with compound followed by Aβ1-42 (2 μM)
Method: To validate the inhibition efficacy of sEH, 3×10^5 microglia isolated from CD1 mouse brain were seeded onto 12 well culture plates in microglia medium.
(§4) Total RNAs were isolated from microglia or astrocyte using a Quick-RNA kit (Zymo Research, Inc., Irvine, CA, USA). The concentration of total RNAs was measured using a UV-Vis spectrophotometer (NanoDrop8000, Thermo Fisher Scientific Inc., Wilmington, DE, USA) and reverse-transcribed with a high-capacity cDNA reverse transcription kit (Applied Biosystems, Carlsbad, CA, USA). Gene expression was quantified by Fast SYBR green real-time PCR on a Quantstudio 5 system (Applied Biosystems). The primer sequences are listed below (Table 8). Data were analyzed according to the comparative Ct method. Glyceraldehyde 3-phosphate dehydrogenase (Gapdh) was used to normalize the amounts of cDNA within each sample.

GFAP = test: Western blot of hippocampus, neuroinflammation marker GFAP (5×FAD mice); assay type: in vivo, mouse; details: 5×FAD male mice, 5 mg/kg, 4 weeks, Arbitrary Units, control as 100%
From the text: as §1, §2, §3

human primary astrocytes = test: T/I/C-induced reactive astrocyte conversion, qPCR and Western blotting; assay type: cell-based
Method: To validate the inhibition efficacy of sEH, 10^6 astrocytes isolated from CD1 mouse brain (Sciencell #M1800) or primary human astrocyte (Sciencell #1800) were seeded onto 6 well culture plates in astrocyte medium (Sciencell #1831 or #1801).
as §4
Proteins were extracted from microglia or astrocyte by RIPA buffer (Thermo Fisher Scientific Inc.). Extracted proteins were separated by SDS/PAGE and subsequently transferred to nitrocellulose membranes (Bio-Rad, Hercules, CA, USA). […] Membranes visualized on Odyssey (LI-COR Biosciences, NE, USA).

[1] = listed as compound of example 2

In the case of `O=C(NC12CC3CC(Cl)(CC(C1)c1ccccc13)C2)N[C@H]1CC[C@H](Oc2ccc(C(=O)O)cc2)CC1` [Example 2, 4-[((1r,4r)-4-(3-(9-chloro-5,6,8,9,10,11-hexahydro-7H-5,9:7,11-dimethanobenzo[9]annulen-7-yl)ureido)cyclohexyl)oxy]benzoic acid], the TREM2 protein levels (TREM2; listed as Cpd. Ex. 2) was 118.42 ± 6.53*^, the TREM2 protein levels (TREM2; [1]) was “significant diminution in the protein levels” and the “memory deficits by NORT” value (5×FAD mice) was “reduced memory deficits”. For the same molecule, the “mRNA for pro-inflammatory cytokines II-6 and II-1b” value (mouse primary microglia) was “prevented”, the GFAP protein levels (GFAP; listed as Cpd. Ex. 2) was 125.85 ± 9.21*^ and the GFAP protein levels (GFAP; [1]) was “significant diminution in the protein levels”. For the same molecule, the “induction of inflammatory mediators Nos and Cox2 mRNA” value (human primary astrocytes; T/I/C 24 h, qPCR) was “prevented the induction”, the “mRNA levels of reactive astrocyte markers Cxcl10 and C3” value (human primary astrocytes; T/I/C 24 h, qPCR) was “significantly reduced” and the “protein levels of C3 and phosphor-p38” value (human primary astrocytes; T/I/C-induced reactive astrocyte, 30 μM (FIG. 5f)) was “decreased”.
